Like-named read-outs stand apart in the source and are kept apart here.
Assays:
[1] = test system: T1, Plasmodium berghei Liver-stage PbLuc; test: microbe, parasite or virus in culture; set-up: liver-stage Plasmodium berghei luciferase inhibition assay
T1 construct: PbLuc (luciferase reporter)
Text: (§1) Moderate activity was also observed against immature and late-stage gametocytes, in the low micromolar range, as well as against liver stages, in the submicromolar range (Table and Supplementary Table S3).

[2] = test system: T2, Plasmodium falciparum PfNF54 (WT); test: microbe, parasite or virus in culture; set-up: species or system P. falciparum asexual blood stages; asexual blood stage growth inhibition, modified [3H]-hypoxanthine incorporation; conditions: read-out: PfNF54 control (–Shield-1) IC50 (nM)
T2 construct: NF54

[3] = molecular target: T3, 3-phosphoinositide-dependent protein kinase 1 (PfPDK1, PF3D7_1121900) (Plasmodium falciparum, UniProt Q8IIE7); test: Kinobead competitive pulldown from asexual blood stage parasite lysate, mass spectrometry; format: biochemical
T3 sequence (Q8IIE7 1-525): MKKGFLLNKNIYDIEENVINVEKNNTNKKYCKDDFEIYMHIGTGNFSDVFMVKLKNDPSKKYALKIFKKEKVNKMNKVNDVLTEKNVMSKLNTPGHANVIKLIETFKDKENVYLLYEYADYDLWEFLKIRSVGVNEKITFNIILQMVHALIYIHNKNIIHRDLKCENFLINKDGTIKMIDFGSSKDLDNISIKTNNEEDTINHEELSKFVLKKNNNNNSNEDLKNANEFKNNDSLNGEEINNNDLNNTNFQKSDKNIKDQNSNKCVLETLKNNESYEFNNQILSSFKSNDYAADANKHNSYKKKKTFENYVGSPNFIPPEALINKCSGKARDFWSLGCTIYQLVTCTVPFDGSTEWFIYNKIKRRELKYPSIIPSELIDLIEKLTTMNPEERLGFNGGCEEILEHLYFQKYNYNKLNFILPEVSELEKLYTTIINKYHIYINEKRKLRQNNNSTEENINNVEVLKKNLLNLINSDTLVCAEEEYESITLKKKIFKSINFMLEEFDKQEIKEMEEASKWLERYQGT

[4] = test system: T4, Plasmodium falciparum PfDd2; test: microbe, parasite or virus in culture; set-up: species or system P. falciparum asexual blood stages; asexual blood stage growth inhibition, pLDH read-out; conditions: read-out: Mean IC50 ± SEM (µM), pLDH
T4 construct: Dd2
Method: (§2) Parasite growth inhibition was calculated relative to untreated controls, and IC50 values were determined by fitting dose-response curves. Each assay plate included appropriate growth, vehicle, and positive control wells.

[5] = molecular target: T5, calcium-dependent protein kinase 1 (PfCDPK1, PF3D7_0217500) (Plasmodium falciparum, UniProt P62344); test: Kinobead competitive pulldown from asexual blood stage parasite lysate, mass spectrometry; format: biochemical
T5 construct: gene CDPK1

[6] = molecular target: T6, glycogen synthase kinase 3 β (PfGSK3β, PF3D7_0312400) (Plasmodium falciparum, UniProt O77344); test: KinaseSeeker competition binding assay with recombinant kinase; also Kinobead competition (IC50 […]); conditions: read-out: IC50 value ± SEM or SD ^c
T6 sequence (O77344 1-440): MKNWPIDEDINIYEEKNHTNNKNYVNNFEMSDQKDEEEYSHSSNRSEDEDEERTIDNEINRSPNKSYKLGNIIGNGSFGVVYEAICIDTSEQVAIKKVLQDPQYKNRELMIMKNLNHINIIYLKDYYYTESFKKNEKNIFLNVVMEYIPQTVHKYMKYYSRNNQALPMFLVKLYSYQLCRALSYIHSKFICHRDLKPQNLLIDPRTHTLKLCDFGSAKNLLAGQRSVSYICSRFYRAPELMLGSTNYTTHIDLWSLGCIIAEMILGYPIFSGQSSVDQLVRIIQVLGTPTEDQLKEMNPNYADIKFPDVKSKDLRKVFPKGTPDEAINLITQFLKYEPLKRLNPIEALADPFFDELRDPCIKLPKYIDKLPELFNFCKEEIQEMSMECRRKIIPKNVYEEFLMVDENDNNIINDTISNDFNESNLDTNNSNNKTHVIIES

[7] = test system: T7, Plasmodium falciparum PfCam3.II; test: microbe, parasite or virus in culture; set-up: species or system P. falciparum asexual blood stages; asexual blood stage growth inhibition, SYBR Green I read-out; conditions: read-out: Mean IC50 ± SEM (µM), SYBR Green I
T7 construct: Cam3.II
Method: as §2

[8] = test system: T8, Plasmodium falciparum PfRF7; test: microbe, parasite or virus in culture; set-up: species or system P. falciparum asexual blood stages; asexual blood stage growth inhibition, SYBR Green I read-out; conditions: read-out: Mean IC50 ± SEM (µM), SYBR Green I
T8 construct: RF7
Method: as §2

[9] = test system: T2, Plasmodium falciparum PfNF54 (WT); test: microbe, parasite or virus in culture; set-up: species or system P. falciparum asexual blood stages; asexual blood stage growth inhibition, SYBR Green I read-out; conditions: read-out: Mean IC50 ± SEM (µM), SYBR Green I
Method: as §2

[10] = molecular target: T9, cAMP-dependent protein kinase catalytic subunit (PfPKAc, PF3D7_0934800) (Plasmodium falciparum, UniProt Q7K6A0); test: Kinobead competitive pulldown from asexual blood stage parasite lysate, mass spectrometry; format: biochemical
T9 construct: with PfPKAr (PF3D7_1223100)
T9 sequence (Q7K6A0 1-342): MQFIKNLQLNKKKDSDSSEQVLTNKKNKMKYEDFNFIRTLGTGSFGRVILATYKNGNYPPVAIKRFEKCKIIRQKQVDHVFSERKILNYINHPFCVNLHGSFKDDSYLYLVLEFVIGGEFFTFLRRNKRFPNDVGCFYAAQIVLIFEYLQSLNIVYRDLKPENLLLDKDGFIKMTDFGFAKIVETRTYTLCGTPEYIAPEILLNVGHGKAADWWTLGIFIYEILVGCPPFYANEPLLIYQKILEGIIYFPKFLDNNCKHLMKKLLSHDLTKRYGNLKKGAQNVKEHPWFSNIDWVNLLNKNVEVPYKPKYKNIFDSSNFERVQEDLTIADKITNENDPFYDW
T9 sequence (Q7KQK0 1-441 partner): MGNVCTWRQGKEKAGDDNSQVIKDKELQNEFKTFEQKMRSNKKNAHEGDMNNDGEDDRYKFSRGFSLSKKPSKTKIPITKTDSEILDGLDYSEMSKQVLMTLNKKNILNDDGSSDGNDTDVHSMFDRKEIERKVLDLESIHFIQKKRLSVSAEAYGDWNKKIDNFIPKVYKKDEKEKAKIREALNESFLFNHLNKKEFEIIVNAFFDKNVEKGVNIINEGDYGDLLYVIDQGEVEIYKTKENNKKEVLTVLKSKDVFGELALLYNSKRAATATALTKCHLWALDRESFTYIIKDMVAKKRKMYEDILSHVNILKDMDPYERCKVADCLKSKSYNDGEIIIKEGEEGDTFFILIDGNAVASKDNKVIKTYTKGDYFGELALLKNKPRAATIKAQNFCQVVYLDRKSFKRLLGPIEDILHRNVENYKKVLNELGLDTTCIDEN

[11] = molecular target: T10, Serine/threonine protein kinase ; PF3D7_0605300 ; C6KSQ1 (Plasmodium falciparum, UniProt C6KSQ1); test: biochemical; set-up: species or system Plasmodium falciparum asexual blood stage lysate; Kinobeads competitive pulldown from asexual blood stage P. falciparum extract, TMT quantitative mass spectrometry, apparent Kd; conditions: Kdapp, apparent Kd, Kinobeads competition
T10 sequence (C6KSQ1 1-353): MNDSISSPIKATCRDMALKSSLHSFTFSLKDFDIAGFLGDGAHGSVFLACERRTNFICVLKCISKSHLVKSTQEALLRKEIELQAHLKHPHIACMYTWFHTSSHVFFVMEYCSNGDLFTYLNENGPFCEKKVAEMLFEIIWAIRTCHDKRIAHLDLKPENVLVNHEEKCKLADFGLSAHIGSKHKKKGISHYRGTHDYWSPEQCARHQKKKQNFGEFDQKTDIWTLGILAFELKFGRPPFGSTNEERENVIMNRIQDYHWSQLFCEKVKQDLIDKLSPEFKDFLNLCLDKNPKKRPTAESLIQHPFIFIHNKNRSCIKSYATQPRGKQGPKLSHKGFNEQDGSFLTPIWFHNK
Text: Eluted kinases are quantified in a dose-dependent manner via mass spectrometry. […] Data and error bars represent the mean and SD from two independent experiments. […] Data are plotted as the mean with error bars representing the SEM where N,n = 3,2.

[12] = molecular target: Aurora-related kinase 1 (PfArk1, PF3D7_0605300) (Plasmodium falciparum, UniProt C6KSQ1); test: KinaseSeeker competition binding assay with recombinant kinase; also Kinobead competition (Kd app […]) and conditional knockdown sensitization ([…])
in vitro = test: in vitro; set-up: HepG2 liver cell cytotoxicity; conditions: human, hepg2 cells; read-out: Liver cytotoxicity HepG2 IC50
Text: as §1

T5 sequence (P62344 2-524): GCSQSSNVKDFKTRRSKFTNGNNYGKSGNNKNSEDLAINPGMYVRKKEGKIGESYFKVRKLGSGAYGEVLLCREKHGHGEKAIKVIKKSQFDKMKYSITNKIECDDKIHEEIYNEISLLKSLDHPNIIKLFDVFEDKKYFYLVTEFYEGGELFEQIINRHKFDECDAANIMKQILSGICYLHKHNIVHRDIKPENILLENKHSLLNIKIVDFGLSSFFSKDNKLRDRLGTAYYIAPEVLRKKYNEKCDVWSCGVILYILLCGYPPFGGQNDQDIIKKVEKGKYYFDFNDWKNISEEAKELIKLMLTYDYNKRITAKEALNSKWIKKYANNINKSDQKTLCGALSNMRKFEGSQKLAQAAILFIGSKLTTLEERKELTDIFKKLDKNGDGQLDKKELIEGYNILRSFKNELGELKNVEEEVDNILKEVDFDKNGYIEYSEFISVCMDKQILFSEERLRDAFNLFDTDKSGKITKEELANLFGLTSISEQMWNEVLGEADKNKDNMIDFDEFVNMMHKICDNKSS

**Q.** Which IC50 [1] does the source give for `O=c1[nH]c2ccc(Cl)cc2c(N[C@@H]2CN3CCC2CC3)c1-c1nc2ccccc2[nH]1` [CHIR-124] here?
**A.** The IC50 was 310 nM.

**Q.** What about the IC50 [2] of the same molecule?
**A.** Its IC50 is 36 ± 7 nM.

**Q.** What about the Kd [3] of the same molecule?
**A.** Its Kd is 100 nM.

**Q.** And the IC50 [4]?
**A.** The IC50 was 0.44 ± 0.05 µM.

**Q.** And the Kd [5]?
**A.** Its Kd is 40 nM.

**Q.** And the IC50 [6]?
**A.** Its IC50 is 200 ± 20 nM.

**Q.** And the IC50 [7]?
**A.** The IC50 was 0.016 ± 0.002 µM.

**Q.** What about the IC50 [8] of the same molecule?
**A.** Its IC50 is 0.01 ± 0.001 µM.

**Q.** And the IC50 [9]?
**A.** Its IC50 is 0.033 ± 0.002 µM.

**Q.** What about the Kd [10] of the same molecule?
**A.** The Kd was 610 nM.

**Q.** And the Kd ([11]; Experiment ID=X048537)?
**A.** The Kd was 180 nM.

**Q.** And the Kd ([11]; Experiment ID=X048538)?
**A.** The Kd was 156 nM.

**Q.** What about the IC50 [12] of the same molecule?
**A.** The IC50 was 380 ± 70 nM.

**Q.** What about the CC50 (in vitro) of the same molecule?
**A.** Its CC50 is 4300 nM.

— article PMC13386468 (ACS Chemical Biology, 2025)
